Reference: ChEMBL document CHEMBL5625265, “Exploring 2-methyl-substituted vitamin K3 derivatives with potent inhibitory activity against the 3CL protease of SARS-CoV-2” (Bioorg Med Chem Lett, 2024)
The source made the active and inactive calls. The rule behind the calls is not given here.

Columns and labels:
[1] = target: Replicase polyprotein 1ab (Severe acute respiratory syndrome coronavirus 2) (UniProt P0DTD1); assay: Inhibition of SARS-CoV-2 3CL protease at 10 uM using Dabcyl-KTSAVLQSGFRKME-Edans as a substrate preincubated for 30 mins followed by substrate addition and measured after for 4 hrs by FRET assay relative to control; conditions: time 4.5 hrs
[2] = target: Replicase polyprotein 1ab (Severe acute respiratory syndrome coronavirus 2, UniProt P0DTD1); assay: Inhibition of SARS-CoV-2 3CL protease using Dabcyl-KTSAVLQSGFRKME-Edans as a substrate preincubated for 30 mins followed by substrate addition and measured after for 4 hrs by FRET assay

Compound	inhibition [1]	IC50 [2]
CC(=O)CCC1=CC(=O)c2ccccc2C1=O	Active	
CCSC1=CC(=O)c2ccccc2C1=O	Active	5.35 µM
CC1=CC(=O)c2ccccc2C1=O	40%	
O=C1C=C(C2CCC2)C(=O)c2ccccc21	Active	
O=C1C=C(C2CC2)C(=O)c2ccccc21	Active	
O=C1C=C(Sc2ccccc2)C(=O)c2ccccc21	Active	0.964 µM
O=C1C=C(Oc2ccccc2)C(=O)c2ccccc21	Active	
